In the assay the target is T1, CYP11A1 (Homo sapiens, UniProt P05108).
T1 construct: human H295R adrenocortical carcinoma cell line was used as source of enzyme; endogenous in cells; host or cells: H295R human adrenocortical carcinoma cells
T1 sequence (P05108 40-521): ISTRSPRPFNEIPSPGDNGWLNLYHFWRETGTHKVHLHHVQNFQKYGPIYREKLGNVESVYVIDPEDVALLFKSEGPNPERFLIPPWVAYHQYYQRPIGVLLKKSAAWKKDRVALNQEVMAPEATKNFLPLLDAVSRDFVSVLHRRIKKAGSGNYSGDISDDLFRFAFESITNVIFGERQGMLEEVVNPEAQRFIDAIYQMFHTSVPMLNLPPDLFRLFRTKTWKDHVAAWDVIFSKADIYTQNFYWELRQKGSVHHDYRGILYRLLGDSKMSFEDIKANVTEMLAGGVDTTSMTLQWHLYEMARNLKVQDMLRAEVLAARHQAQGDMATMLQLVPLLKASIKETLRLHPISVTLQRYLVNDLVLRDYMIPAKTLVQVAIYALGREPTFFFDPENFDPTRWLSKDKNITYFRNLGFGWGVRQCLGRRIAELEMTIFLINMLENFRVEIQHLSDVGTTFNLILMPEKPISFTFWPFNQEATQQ
Briefly: CYP11A1 inhibition: modified isocaproic acid release assay (IARA) in H295R cells. It counts as cell-based. To be noted: human H295R adrenocortical carcinoma cells treated three days, 3 nM [24,25-3H]-labelled cholesterol, 1% DMSO, 10 concentrations in duplicates; read-out: IC50 of the test compounds on CYP11A1 inhibition. The gist of the method:
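Cholesterol side-chain cleavage followed as tritiated isocaproic acid in charcoal-extracted medium, counted by scintillation. Substrate was 3 nM [24,25-3H]-cholesterol on human H295R cells exposed for three days to ten compound concentrations (duplicates, 1% DMSO); IC50 derived.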
Usually IC50 stands for the point on the concentration scale where inhibition reaches its midpoint. With `O=c1cc(CN2Cc3ccccc3C2)occ1OCC1CCN(S(=O)(=O)N2CCCC2)CC1` [Compound 267, 2-(Isoindolin-2-ylmethyl)-5-((1-(pyrrolidin-1-ylsulfonyl)piperidin-4-yl)methoxy)-4H-pyran-4-one], the half-maximal inhibitory concentration (IC50) lay within 150 to 300 nM.
As for `O=c1cc(CN2Cc3ccccc3C2)occ1OCC1CCCCC1` [Compound 65, 5-(Cyclohexylmethoxy)-2-(isoindolin-2-ylmethyl)-4H-pyran-4-one], the figure is < 150 nM.
As for `CS(=O)(=O)N1CCC(CCOc2coc(CN3Cc4ccccc4C3)cc2=O)CC1` [Compound 198, 2-(Isoindolin-2-ylmethyl)-5-(2-(1-(methylsulfonyl)piperidin-4-yl)ethoxy)-4H-pyran-4-one], the figure is 150 to 300 nM; as for `CN(C1CCC(COc2coc(CN3Cc4ccccc4C3)cc2=O)CC1)S(C)(=O)=O` (centres unmarked) [Compound 218, N-(4-(((6-(Isoindolin-2-ylmethyl)-4-oxo-4H-pyran-3-yl)oxy)methyl)cyclohexyl)-N-methylmethanesulfonamide], 150 to 300 nM; as for `O=c1cc(CN2Cc3ccccc3C2)occ1OCc1ccc(S(=O)(=O)C(F)F)cc1` [Compound 22, 5-((4-((Difluoromethyl)sulfonyl)benzyl)oxy)-2-(isoindolin-2-ylmethyl)-4H-pyran-4-one], < 150 nM.
For `CC(C)(C)OC(=O)N1CCC(Oc2coc(CN3Cc4ccccc4C3)cc2=O)CC1` [Compound 203, tert-Butyl 4-((6-(isoindolin-2-ylmethyl)-4-oxo-4H-pyran-3-yl)oxy)piperidine-1-carboxylate] the value was 301 to 2000 nM.
For `NC(=O)c1ccc(COc2coc(CN3CCc4ccccc4C3)cc2=O)cc1` [Compound 43, 4-(((6-((3,4-Dihydroisoquinolin-2(1H)-yl)methyl)-4-oxo-4H-pyran-3-yl)oxy)-methyl)benzamide], the concentration for half-maximal inhibition (IC50) was 301 to 2000 nM.
Take `C[C@@H]1c2ccccc2CN1Cc1cc(=O)c(OCc2ccc(C(=O)N(C)C)cc2)co1` [Compound 133, (R)—N,N-Dimethyl-4-(((6-((1-methylisoindolin-2-yl)methyl)-4-oxo-4H-pyran-3-yl)oxy)methyl)benzamide]: the IC50 fell in the range of 301 to 2000 nM.
As for `CN(CCC#N)S(=O)(=O)c1ccc(COc2coc(CN3Cc4ccccc4C3)cc2=O)cc1` [Compound 23, N-(2-Cyanoethyl)-4-(((6-(isoindolin-2-ylmethyl)-4-oxo-4H-pyran-3-yl)oxy)-methyl)-N-methylbenzenesulfonamide], the figure is < 150 nM; as for `CC1(COc2coc(CN3Cc4ccccc4C3)cc2=O)CCN(S(C)(=O)=O)CC1` [Compound 191, 2-(Isoindolin-2-ylmethyl)-5-((4-methyl-1-(methylsulfonyl)piperidin-4-yl)-methoxy)-4H-pyran-4-one], 150 to 300 nM.
As for `CC(C)(C)OC(=O)N1CC[C@H](COc2coc(CN3Cc4ccccc4C3)cc2=O)C1` [Compound 200, (S)-tert-Butyl 3-(((6-(isoindolin-2-ylmethyl)-4-oxo-4H-pyran-3-yl)oxy)methyl)-pyrrolidine-1-carboxylate], the figure is 150 to 300 nM; as for `O=c1cc(CN2Cc3ccc(C(F)(F)F)cc3C2)occ1OCc1ccc(C2(O)COC2)cc1` [Compound 116, 5-((4-(3-Hydroxyoxetan-3-yl)benzyl)oxy)-2-((5-(trifluoromethyl)isoindolin-2-yl)methyl)-4H-pyran-4-one], < 150 nM; as for `CC(C)(C)OC(=O)N1CCC(COc2coc(CN3Cc4ccccc4C3)cc2=O)C1` (centres unmarked) [Compound 182, tert-Butyl 3-(((6-(isoindolin-2-ylmethyl)-4-oxo-4H-pyran-3-yl)oxy)methyl)-pyrrolidine-1-carboxylate], 301 to 2000 nM.
Turning to `CC(C)(C)OC(=O)N1CCC(CCOc2coc(CN3Cc4ccccc4C3)cc2=O)CC1` [Compound 197, tert-Butyl 4-(2-((6-(isoindolin-2-ylmethyl)-4-oxo-4H-pyran-3-yl)oxy)ethyl)-piperidine-1-carboxylate], the IC50 was 301 to 2000 nM.
As for `CC(C)(C)NC(=O)N1CCC(COc2coc(CN3Cc4ccccc4C3)cc2=O)CC1` [Compound 248, N-(tert-Butyl)-4-(((6-(isoindolin-2-ylmethyl)-4-oxo-4H-pyran-3-yl)oxy)-methyl)piperidine-1-carboxamide], the figure is 150 to 300 nM; as for `CNC(=O)c1ccc(COc2coc(CN3Cc4ccccc4C3)cc2=O)cc1` [Compound 62, 4-(((6-(Isoindolin-2-ylmethyl)-4-oxo-4H-pyran-3-yl)oxy)methyl)-N-methylbenzamide], 301 to 2000 nM.
For `Nc1cccc(COc2coc(CN3Cc4ccccc4C3)cc2=O)c1` [Compound 263, 5-((3-Aminobenzyl)oxy)-2-(isoindolin-2-ylmethyl)-4H-pyran-4-one] the value was 301 to 2000 nM; for `CN(CCO)S(=O)(=O)c1ccc(COc2coc(CN3Cc4ccccc4C3)cc2=O)cc1` [Compound 12, N-(2-Hydroxyethyl)-4-(((6-(isoindolin-2-ylmethyl)-4-oxo-4H-pyran-3-yl)-oxy)methyl)-N-methylbenzenesulfonamide], < 150 nM; for `O=C(N1CCOCC1)N1CCC(COc2coc(CN3Cc4ccccc4C3)cc2=O)CC1` [Compound 232, 2-(Isoindolin-2-ylmethyl)-5-((1-(morpholine-4-carbonyl)piperidin-4-yl)methoxy)-4H-pyran-4-one], < 150 nM.
On to `O=c1cc(CN2Cc3ccccc3C2)occ1OCc1ccc(S(=O)(=O)N2CCC2)cc1` [Compound 9, 5-((4-(Azetidin-1-ylsulfonyl)benzyl)oxy)-2-(isoindolin-2-ylmethyl)-4H-pyran-4-one], for which the IC50 is 150 to 300 nM.
As for `CC(C)CS(=O)(=O)c1ccc(COc2coc(CN3Cc4ccccc4C3)cc2=O)cc1` [Compound 73, 5-((4-(Isobutylsulfonyl)benzyl)oxy)-2-(isoindolin-2-ylmethyl)-4H-pyran-4-one], the figure is < 150 nM; as for `CNC(=O)/C=C/c1ccc(COc2coc(CN3CCc4ccccc4C3)cc2=O)cc1` [Compound 148, (E)-3-(4-(((6-((3,4-Dihydroisoquinolin-2(1H)-yl)methyl)-4-oxo-4H-pyran-3-yl)oxy)methyl)phenyl)-N-methylacrylamide], 301 to 2000 nM.
Turning to `CS(=O)(=O)CC(=O)N1CCC(COc2coc(CN3Cc4ccccc4C3)cc2=O)CC1` [Compound 238, 2-(Isoindolin-2-ylmethyl)-5-((1-(2-(methylsulfonyl)acetyl)piperidin-4-yl)-methoxy)-4H-pyran-4-one], the IC50 was < 150 nM.
As for `CC(C)S(=O)(=O)c1ccc(COc2coc(CN3Cc4ccccc4C3)cc2=O)cc1` [Compound 25, 2-(Isoindolin-2-ylmethyl)-5-((4-(isopropylsulfonyl)benzyl)oxy)-4H-pyran-4-one], the figure is 150 to 300 nM; as for `CS(=O)(=O)N1C=CC(COc2coc(CN3Cc4ccc(C(F)(F)F)cc4C3)cc2=O)CC1` (centres unmarked) [Compound 291, 5-((1-(Methylsulfonyl)-1,2,3,4-tetrahydropyridin-4-yl)methoxy)-2-((5-(trifluoro-methyl)isoindolin-2-yl)methyl)-4H-pyran-4-one], 150 to 300 nM.
As to `COc1ccc2c(c1)CCN(Cc1cc(=O)c(OCc3ccc(C#N)cc3)co1)C2` [Compound 53, 4-(((6-((6-Methoxy-3,4-dihydroisoquinolin-2(1H)-yl)methyl)-4-oxo-4H-pyran-3-yl)oxy)methyl)benzonitrile], the IC50 was 150 to 300 nM.
